Data published in PubChem BioAssay AID248 (DTP/NCI, 2004).
Where “and” joins values, the source holds several entries; their conditions need not be identical. Identical values can stand only once. Inconclusive results and toxic doses are left out.

Test system: L1210 leukemia ip in BDF1 mice, survival T/C
Assay: NCI In Vivo Anticancer Drug Screen. Data for tumor model L1210 Leukemia (intraperitoneal) in B6D2F1 (BDF1) mice
Settings: endpoint: mean survival time, higher = longer survival
Method in brief: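 Tumor was transplanted into mice, which were then dosed with test compound or vehicle alone. Survival was recorded for each group, and the treated figure was expressed relative to the control figure.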

[1] = dose: 400.0 mg/kg/injection, schedule: Q01DX001 (ip), vehicle: saline
[2] = dose: 100.0 mg/kg/injection, schedule: Q01DX001 (ip), vehicle: saline
[3] = dose: 100.0 mg/kg/injection, schedule: Q01DX009 (ip), vehicle: saline
[4] = dose: 200.0 mg/kg/injection, schedule: Q01DX001 (ip), vehicle: saline
[5] = dose: 200.0 mg/kg/injection, schedule: Q01DX009 (ip), vehicle: saline
[6] = dose: 100.0 mg/kg/injection, schedule: Q01DX009 (ip), vehicle: Klucel (hydroxypropylcellulose) (HPC)

Clc1ccc(-c2cc[s+]s2)cc1
T/C (dose: 12.5 mg/kg/injection, schedule: Q01DX009 (ip), vehicle: water): 91 % of control | T/C (dose: 25.0 mg/kg/injection, schedule: Q04DX003 (ip), vehicle: water): 100 % of control | T/C (dose: 50.0 mg/kg/injection, schedule: Q01DX009 (ip), vehicle: water): 88 % of control | T/C (dose: 50.0 mg/kg/injection, schedule: Q04DX003 (ip), vehicle: water): 98 % of control | T/C (dose: 100.0 mg/kg/injection, schedule: Q04DX003 (ip), vehicle: water): 98 % of control and 92 % of control

Cc1cccc2c(Nc3ccc(NS(C)(=O)=O)cc3)c3ccc([N+](=O)[O-])cc3nc12
T/C (dose: 4.8 mg/kg/injection, schedule: Q01DX009 (ip), vehicle: Klucel (hydroxypropylcellulose) (HPC)): 151 % of control | T/C (dose: 9.5 mg/kg/injection, schedule: Q01DX009 (ip), vehicle: Klucel (hydroxypropylcellulose) (HPC)): 176 % of control | T/C (dose: 10.0 mg/kg/injection, schedule: Q01DX009 (sc), vehicle: saline): 107 % of control | T/C (dose: 19.0 mg/kg/injection, schedule: Q01DX009 (ip), vehicle: Klucel (hydroxypropylcellulose) (HPC)): 154 % of control | T/C (dose: 20.0 mg/kg/injection, schedule: Q01DX009 (sc), vehicle: saline): 121 % of control | T/C (dose: 40.0 mg/kg/injection, schedule: Q01DX009 (sc), vehicle: saline): 123 % of control | T/C (dose: 80.0 mg/kg/injection, schedule: Q01DX009 (sc), vehicle: saline): 152 % of control | T/C (dose: 178.0 mg/kg/injection, schedule: Q01DX001 (ip), vehicle: saline): 102 % of control | T/C (dose: 267.0 mg/kg/injection, schedule: Q01DX001 (ip), vehicle: saline): 97 % of control | T/C [1]: 103 % of control

O=C1Nc2ccc(C(=O)O)c(O)c2C1=O
T/C (dose: 50.0 mg/kg/injection, schedule: Q01DX001 (ip), vehicle: Klucel (hydroxypropylcellulose) (HPC)): 112 % of control | T/C (dose: 100.0 mg/kg/injection, schedule: Q01DX001 (ip), vehicle: Klucel (hydroxypropylcellulose) (HPC)): 112 % of control | T/C (dose: 200.0 mg/kg/injection, schedule: Q01DX001 (ip), vehicle: Klucel (hydroxypropylcellulose) (HPC)): 102 % of control

CC(C)Oc1ccc(C(=O)NS(=O)(=O)c2ccc(N)cc2)cc1
T/C [2]: 101 % of control | T/C [3]: 91 % of control | T/C [4]: 101 % of control | T/C [5]: 103 % of control | T/C [1]: 100 % of control | T/C (dose: 400.0 mg/kg/injection, schedule: Q01DX009 (ip), vehicle: saline): 100 % of control

Cc1ccc(C)c(NS(=O)(=O)c2ccc(Cl)cc2)c1
T/C [6]: 102 % of control | T/C (dose: 100.0 mg/kg/injection, schedule: Q04DX003 (ip), vehicle: Klucel (hydroxypropylcellulose) (HPC)): 107 % of control | T/C (dose: 200.0 mg/kg/injection, schedule: Q01DX009 (ip), vehicle: Klucel (hydroxypropylcellulose) (HPC)): 98 % of control | T/C (dose: 200.0 mg/kg/injection, schedule: Q04DX003 (ip), vehicle: Klucel (hydroxypropylcellulose) (HPC)): 113 % of control | T/C (dose: 400.0 mg/kg/injection, schedule: Q01DX009 (ip), vehicle: Klucel (hydroxypropylcellulose) (HPC)): 98 % of control | T/C (dose: 400.0 mg/kg/injection, schedule: Q04DX003 (ip), vehicle: Klucel (hydroxypropylcellulose) (HPC)): 113 % of control

CCOC(=O)c1cnc(SC)nc1Nc1cccc(C(F)(F)F)c1
T/C (dose: 50.0 mg/kg/injection, schedule: Q01DX001 (ip), vehicle: gum acacia): 96 % of control | T/C (dose: 87.0 mg/kg/injection, schedule: Q01DX009 (ip), vehicle: gum acacia): 100 % of control | T/C (dose: 100.0 mg/kg/injection, schedule: Q01DX001 (ip), vehicle: gum acacia): 89 % of control and 90 % of control | T/C (dose: 175.0 mg/kg/injection, schedule: Q01DX009 (ip), vehicle: gum acacia): 99 % of control | T/C (dose: 200.0 mg/kg/injection, schedule: Q01DX001 (ip), vehicle: gum acacia): 89 % of control | T/C (dose: 350.0 mg/kg/injection, schedule: Q01DX009 (ip), vehicle: gum acacia): 94 % of control | T/C (dose: 400.0 mg/kg/injection, schedule: Q01DX001 (ip), vehicle: gum acacia): 99 % of control

C[N+](C)(C)CCC[N+]1(C)Cc2ccccc2C1
T/C (dose: 55.0 mg/kg/injection, schedule: Q01DX Z (ip), vehicle: saline): 91 % of control | T/C (dose: 83.0 mg/kg/injection, schedule: Q01DX Z (ip), vehicle: saline): 97 % of control | T/C (dose: 125.0 mg/kg/injection, schedule: Q01DX Z (ip), vehicle: saline): 96 % of control

CCCCNP(=O)(OCC)OCC
T/C (dose: 12.5 mg/kg/injection, schedule: Q01DX009 (ip), vehicle: saline): 91 % of control | T/C (dose: 12.5 mg/kg/injection, schedule: Q04DX003 (ip), vehicle: saline): 101 % of control | T/C (dose: 25.0 mg/kg/injection, schedule: Q01DX009 (ip), vehicle: saline): 104 % of control | T/C (dose: 25.0 mg/kg/injection, schedule: Q04DX003 (ip), vehicle: saline): 113 % of control | T/C (dose: 50.0 mg/kg/injection, schedule: Q01DX009 (ip), vehicle: saline): 104 % of control | T/C (dose: 50.0 mg/kg/injection, schedule: Q04DX003 (ip), vehicle: saline): 101 % of control | T/C [3]: 109 % of control | T/C (dose: 100.0 mg/kg/injection, schedule: Q04DX003 (ip), vehicle: saline): 101 % of control | T/C [5]: 96 % of control | T/C (dose: 200.0 mg/kg/injection, schedule: Q04DX003 (ip), vehicle: saline): 101 % of control

COc1cc([N+](=O)[O-])ccc1NC(=O)Cc1ccccc1
T/C (dose: 100.0 mg/kg/injection, schedule: Q01DX009 (ip), vehicle: saline with Tween-80): 111 % of control | T/C (dose: 200.0 mg/kg/injection, schedule: Q01DX009 (ip), vehicle: saline with Tween-80): 91 % of control | T/C (dose: 400.0 mg/kg/injection, schedule: Q01DX009 (ip), vehicle: saline with Tween-80): 96 % of control

CCOC(=O)C1=NC(c2ccccc2)N(c2ccccc2)C1c1ccccc1 (configuration not stated)
T/C (dose: 50.0 mg/kg/injection, schedule: Q01DX001 (ip), vehicle: saline): 100 % of control | T/C [2]: 100 % of control | T/C [4]: 100 % of control | T/C [1]: 103 % of control

CCCNC(c1ccccc1)=[N+]1C(C)CCCC1C (configuration not stated)
T/C (dose: 12.5 mg/kg/injection, schedule: Q04DX002 (ip), vehicle: saline): 101 % of control | T/C (dose: 25.0 mg/kg/injection, schedule: Q04DX002 (ip), vehicle: saline): 109 % of control

Cc1nc(C#N)c(C#N)nc1C
T/C (dose: 6.25 mg/kg/injection, schedule: Q01DX009 (ip), vehicle: Klucel (hydroxypropylcellulose) (HPC)): 96 % of control | T/C (dose: 12.5 mg/kg/injection, schedule: Q01DX009 (ip), vehicle: Klucel (hydroxypropylcellulose) (HPC)): 98 % of control | T/C (dose: 12.5 mg/kg/injection, schedule: Q04DX003 (ip), vehicle: Klucel (hydroxypropylcellulose) (HPC)): 101 % of control | T/C (dose: 25.0 mg/kg/injection, schedule: Q04DX003 (ip), vehicle: Klucel (hydroxypropylcellulose) (HPC)): 100 % of control

CCOC(=O)C(C)F (configuration not stated)
T/C (dose: 50.0 mg/kg/injection, schedule: Q01DX001 (ip), vehicle: carboxymethylcellulose (CMC)): 94 % of control | T/C (dose: 100.0 mg/kg/injection, schedule: Q01DX001 (ip), vehicle: carboxymethylcellulose (CMC)): 89 % of control | T/C (dose: 200.0 mg/kg/injection, schedule: Q01DX001 (ip), vehicle: carboxymethylcellulose (CMC)): 89 % of control

Cc1ccc(S(=O)(=O)NC(=O)NCCCOC(C)C)cc1
T/C (dose: 100.0 mg/kg/injection, schedule: Q04DX003 (ip), vehicle: saline with Tween-80): 98 % of control | T/C (dose: 200.0 mg/kg/injection, schedule: Q04DX003 (ip), vehicle: saline with Tween-80): 94 % of control | T/C (dose: 400.0 mg/kg/injection, schedule: Q04DX003 (ip), vehicle: saline with Tween-80): 96 % of control

COc1ccc(OC)c(NC(=O)Sc2ccccc2O)c1
T/C (dose: 25.0 mg/kg/injection, schedule: Q01DX009 (ip), vehicle: Klucel (hydroxypropylcellulose) (HPC)): 100 % of control | T/C (dose: 50.0 mg/kg/injection, schedule: Q01DX009 (ip), vehicle: Klucel (hydroxypropylcellulose) (HPC)): 96 % of control | T/C [6]: 99 % of control and 89 % of control
